Tests used:
mTOR = mTOR (Homo sapiens, UniProt P42345); details: low concentration; cited from earlier work
PI3K/mTOR = details: relatively higher concentrations; cited from earlier work
[1] = mice; cited from earlier work
influenza = details: mice vaccinated against influenza in the presence of rapamycin; cited from earlier work
influenza vaccination = details: elderly mice, 6 weeks of treatment; cited from earlier work
[2] = old mice; cited from earlier work
[3] = test system: NFAT inducible promoter driven luciferase activity; type: cell-based; details: PDL1-Fc coated plate as compared to control treatment by IgG1-Fc; Jurkat JNL cells
Experimental: Jurkat cells with NFAT-LUC reporter (JNL) were grown to the density of 0.5×10^6/ml in Jurket cell growth media with puromycin at 0.5 μg/ml. For each transfection 3×10^6 cells were spin down at 100 g for 10 minutes. Four μg DNA per construct were used per transfection. Amaxa Nucleofector solution V and supplement I was mixed and 100 μl was added into the tube with DNA construct. The mixture was then added to the cells and transferred to the electroporation cuvette. Electroporation was done under setting X-001 using Amaxa Nucleofector II Device. 0.5 ml of growth media was added immediately after electroporation and the mixture were transferred into 2 ml growth media in one well of the 6-well plate. After two hours, the rapalogue compound at various concentrations was added to cells. The cells were applied to tissue culture plate wells that were coated by the target. Tissue culture plate was coated with 5 μg/ml of PDL1-Fc or IgG1-Fc or any target for 2 hrs at 37° C., then blocked with the blocking buffer (DPBS with 5% serum) for 30 minutes. The transfected cells were added to the target plate with 100 μl per well and incubated further for 16 hrs. Luciferase One Glo reagent 100 μl was added per well. The samples were incubated for 5 min at 37° C. and then luminescence is measured using Envision plate reader.

Cn1c(=O)n(-c2ccc(C(C)(C)C#N)cc2)c2c3cc(-c4cnc5ccccc5c4)ccc3ncc21 [BEZ235, 2-methyl-2-[4-(3-methyl-2-oxo-8-quinolin-3-yl-2,3-dihydro-imidazo[4,5-c]quinolin-1-yl)-phenyl]-propionitrile]
concentration at which mTOR inhibition predominates (mTOR): less than 100 nmol/L
concentration giving dual PI3K/mTOR inhibition (PI3K/mTOR): approximately 500 nmol/L

CO[C@H]1C[C@@H]2CC[C@@H](C)[C@@](O)(O2)C(=O)C(=O)N2CCCC[C@H]2C(=O)O[C@H]([C@H](C)C[C@@H]2CC[C@@H](O)[C@H](OC)C2)CC(=O)[C@H](C)/C=C(\C)[C@@H](O)[C@@H](OC)C(=O)[C@H](C)C[C@H](C)/C=C/C=C/C=C/1C [rapamycin]
Lifespan [1]: extend lifespan
Serologic response to influenza as compared to placebo (influenza): broader serologic response
Response to influenza vaccination (influenza vaccination): improved response to influenza vaccination
Spontaneous physical activity [2]: increases spontaneous physical activity

PD1 CAR: CAR construct PD1-ECD-TM-4-1BB-CD3zeta, SEQ ID NO: 26
Activation of NFAT inducible promoter driven luciferase activity [3]: significant PD1 induced activation
